What all share (type): biochemical
What all share (settings): Table 2 selectivity profile

For assay [1], the target named is recombinant human MMP-10 (Homo sapiens, UniProt P09238). Kind of assay: MMP selectivity assay, MMP-10. On the procedure:
(§1) The inhibitory effect of compounds on the rate of cleaving fluorogenic MMP substrate (Enzo, BML-P128) by recombinant human MMP-12 catalytic domain (Enzo, BML-SE138) was carried out by methods known in the art. Briefly, to each well of a 96-well black opaque plate, all the reagents were sequentially added by pipetting, and the final reaction contained 4 nM of recombinant human MMP-12 catalytic domain, 4 μM of fluorogenic MMP substrate, and various concentrations (0.15 nM to 10,000 nM) of tested compound dilutions in HEPES buffer (pH 7.5) containing 10 mM of CaCl2), 0.01% Brij® 35 (polyoxyethylene (23) lauryl ether), and 0.1 mg/ml of BSA.
(§2) The enzyme and compounds were pre-incubated on a shaker to mix in wells. After an hour of mixing, fluorogenic substrate was added to each well. Reaction without enzyme was used as a blank control in the plate. The plate was then fed into a plate reader to measure fluorescence intensity at Excitation/Emission wavelengths of 340 nm/440 nm every 10 mins for at least 1 hour at 37° C. The IC50 of each compound in MMP-12 inhibition was determined by using a readout obtained at time point 30 minutes.
(§3) The MMP selectivity assay was performed by using other recombinant human MMPs, including MMP-1, MMP-2, MMP-3, MMP-7, MMP-8, MMP-9, MMP-10, MMP-13, and MMP-14. The IC50 of the compounds for the other recombinant human MMPs was determined as described above in Example 1, and are shown in Table 2.

Assay [2] deals with recombinant human MMP-13 (Homo sapiens, UniProt P45452). Kind of assay: MMP selectivity assay, MMP-13. On the procedure:
as §1, §2, §3

Assay [3] deals with recombinant human MMP-14 (Homo sapiens, UniProt P50281). In words: MMP selectivity assay, MMP-14. How it is done:
as §1, §2, §3

In assay [4] the target is T1, recombinant human MMP-7 (Homo sapiens, UniProt P09237).
T1 sequence (P09237 95-267): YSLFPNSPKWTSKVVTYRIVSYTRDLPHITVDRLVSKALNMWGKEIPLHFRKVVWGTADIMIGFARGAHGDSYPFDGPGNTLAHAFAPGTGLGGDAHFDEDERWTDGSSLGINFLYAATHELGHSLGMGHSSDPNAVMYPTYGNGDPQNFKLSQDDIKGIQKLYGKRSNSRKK
In words: MMP selectivity assay, MMP-7. How it is done: as §1, §2, §3

The target of assay [5] is T2, recombinant human MMP-2 (Homo sapiens, UniProt P08253).
T2 sequence (P08253 110-660): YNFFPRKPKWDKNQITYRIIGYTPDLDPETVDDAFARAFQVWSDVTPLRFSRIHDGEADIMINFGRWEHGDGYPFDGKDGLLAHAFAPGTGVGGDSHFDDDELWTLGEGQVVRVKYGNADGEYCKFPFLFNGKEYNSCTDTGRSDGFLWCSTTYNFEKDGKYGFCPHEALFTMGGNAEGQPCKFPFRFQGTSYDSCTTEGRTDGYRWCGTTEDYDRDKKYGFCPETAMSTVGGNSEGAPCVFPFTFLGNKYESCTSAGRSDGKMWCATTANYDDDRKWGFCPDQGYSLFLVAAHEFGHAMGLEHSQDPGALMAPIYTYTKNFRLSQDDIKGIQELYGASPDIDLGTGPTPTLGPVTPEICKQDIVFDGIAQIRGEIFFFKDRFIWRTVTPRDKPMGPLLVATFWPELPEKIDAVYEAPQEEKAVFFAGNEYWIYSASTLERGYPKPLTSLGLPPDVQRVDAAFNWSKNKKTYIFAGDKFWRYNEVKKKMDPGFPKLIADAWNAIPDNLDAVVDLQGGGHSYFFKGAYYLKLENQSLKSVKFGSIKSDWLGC
In words: MMP selectivity assay, MMP-2. On the procedure:
as §1, §2, §3

The target of assay [6] is T3, recombinant human MMP-1 (Homo sapiens, UniProt P03956).
T3 sequence (P03956 100-469): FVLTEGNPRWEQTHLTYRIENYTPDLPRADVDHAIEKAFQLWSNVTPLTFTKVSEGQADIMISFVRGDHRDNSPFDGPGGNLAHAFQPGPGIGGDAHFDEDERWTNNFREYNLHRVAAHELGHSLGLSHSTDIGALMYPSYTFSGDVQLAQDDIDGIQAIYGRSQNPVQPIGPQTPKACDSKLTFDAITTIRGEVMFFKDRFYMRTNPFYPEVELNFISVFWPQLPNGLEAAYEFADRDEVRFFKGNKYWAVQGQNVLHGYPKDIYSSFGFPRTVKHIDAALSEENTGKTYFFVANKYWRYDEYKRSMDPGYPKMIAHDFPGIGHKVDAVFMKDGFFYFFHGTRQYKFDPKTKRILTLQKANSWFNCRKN
Kind of assay: MMP selectivity assay, MMP-1. On the procedure: as §1, §2, §3

Assay [7] concerns the target recombinant human MMP-9 (Homo sapiens, UniProt P14780). In words: MMP selectivity assay, MMP-9. On the procedure:
as §1, §2, §3

The target in assay [8] is recombinant human MMP-3 (Homo sapiens, UniProt P08254). In words: MMP selectivity assay, MMP-3. On the procedure: as §1, §2, §3
Assay [9] concerns the target recombinant human MMP-8 (Homo sapiens, UniProt P22894). In words: MMP selectivity assay, MMP-8. On the procedure:
as §1, §2, §3

In general, IC50 refers to the point on the concentration scale where inhibition reaches its midpoint.

Sequence of recombinant human MMP-9 (P14780 94-707): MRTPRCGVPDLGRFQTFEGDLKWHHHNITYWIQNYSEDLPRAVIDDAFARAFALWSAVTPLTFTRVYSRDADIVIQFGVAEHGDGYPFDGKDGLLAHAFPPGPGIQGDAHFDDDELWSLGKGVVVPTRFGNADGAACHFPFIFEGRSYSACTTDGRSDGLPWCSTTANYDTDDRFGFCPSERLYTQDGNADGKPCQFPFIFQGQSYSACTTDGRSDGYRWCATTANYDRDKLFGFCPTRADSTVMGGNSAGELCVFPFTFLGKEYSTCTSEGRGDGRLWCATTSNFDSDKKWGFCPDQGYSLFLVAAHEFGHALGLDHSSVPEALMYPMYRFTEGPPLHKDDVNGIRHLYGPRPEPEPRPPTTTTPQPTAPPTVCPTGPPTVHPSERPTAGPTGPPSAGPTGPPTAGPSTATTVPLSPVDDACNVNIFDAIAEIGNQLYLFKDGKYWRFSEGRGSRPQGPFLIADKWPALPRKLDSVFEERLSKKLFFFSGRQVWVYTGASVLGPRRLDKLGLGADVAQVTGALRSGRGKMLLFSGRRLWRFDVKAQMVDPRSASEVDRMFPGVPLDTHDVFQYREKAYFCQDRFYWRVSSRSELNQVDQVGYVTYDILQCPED
Sequence of recombinant human MMP-10 (P09238 99-476): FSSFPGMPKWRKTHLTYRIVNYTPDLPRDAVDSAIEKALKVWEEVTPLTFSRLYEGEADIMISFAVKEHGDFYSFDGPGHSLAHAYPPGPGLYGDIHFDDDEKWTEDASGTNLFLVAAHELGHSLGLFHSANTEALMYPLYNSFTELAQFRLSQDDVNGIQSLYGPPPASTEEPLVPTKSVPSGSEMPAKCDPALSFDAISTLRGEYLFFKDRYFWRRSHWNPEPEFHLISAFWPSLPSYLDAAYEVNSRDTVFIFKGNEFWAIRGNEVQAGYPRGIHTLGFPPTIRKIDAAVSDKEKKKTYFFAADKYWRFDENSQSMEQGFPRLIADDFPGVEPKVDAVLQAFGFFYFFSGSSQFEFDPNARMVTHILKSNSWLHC
Sequence of recombinant human MMP-8 (P22894 101-467): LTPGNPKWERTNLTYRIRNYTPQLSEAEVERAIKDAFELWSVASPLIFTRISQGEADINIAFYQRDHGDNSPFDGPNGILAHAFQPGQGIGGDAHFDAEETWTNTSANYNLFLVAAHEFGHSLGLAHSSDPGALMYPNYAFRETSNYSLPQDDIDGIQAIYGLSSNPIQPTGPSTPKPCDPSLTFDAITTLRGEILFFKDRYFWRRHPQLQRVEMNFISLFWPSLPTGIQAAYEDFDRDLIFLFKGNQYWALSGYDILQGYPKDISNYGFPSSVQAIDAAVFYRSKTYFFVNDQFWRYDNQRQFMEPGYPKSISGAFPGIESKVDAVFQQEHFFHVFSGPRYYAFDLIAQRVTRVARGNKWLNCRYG
Sequence of recombinant human MMP-3 (P08254 100-477): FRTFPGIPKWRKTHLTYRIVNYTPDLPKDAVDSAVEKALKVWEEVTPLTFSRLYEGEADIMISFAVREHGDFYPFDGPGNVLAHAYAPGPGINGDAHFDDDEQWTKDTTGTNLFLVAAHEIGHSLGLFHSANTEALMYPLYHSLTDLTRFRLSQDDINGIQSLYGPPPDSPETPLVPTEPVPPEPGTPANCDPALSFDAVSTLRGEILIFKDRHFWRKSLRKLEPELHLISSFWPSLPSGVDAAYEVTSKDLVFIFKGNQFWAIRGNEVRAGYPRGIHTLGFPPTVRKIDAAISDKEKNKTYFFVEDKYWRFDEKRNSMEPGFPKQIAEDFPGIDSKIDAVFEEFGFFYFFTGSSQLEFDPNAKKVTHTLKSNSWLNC

In the case of `Cc1cc(COc2ccc(Sc3ccsc3C3NC(=O)NC3=O)cc2)ccn1` (stereo not drawn) [TC8], the 50% inhibitory concentration (IC50) in [1] is 100 to 1000 nM; in assay [2], 10 to 100 nM; in [3], 100 to 1000 nM; in assay [4], 1000 to 10000 nM; in [5] it was 100 to 1000 nM; in [6], over 10000 nM. The concentration for half-maximal inhibition (IC50) in [7] was in the range of 100 to 1000 nM; in [8], 100 to 1000 nM; in assay [9], 10 to 100 nM.

Consider `Cc1cc(COc2ccc(Sc3ccncc3C3NC(=O)NC3=O)c(Cl)c2)ccn1` (stereo not drawn) [PC-51], for which the IC50 in [1] was 1000 to 10000 nM; in [2] it was 100 to 1000 nM; in assay [3] it was 1000 to 10000 nM; in [4], 1000 to 10000 nM; in [5], 1000 to 10000 nM; in [6], over 10000 nM. Moreover, the IC50 lay within 1000 to 10000 nM in [7], 1000 to 10000 nM in assay [8] and 100 to 1000 nM in assay [9].

As to `Cc1cc(COc2ccc(Sc3ncoc3C3NC(=O)NC3=O)cc2)ccn1` (stereo not drawn) [OC-7], the 50% inhibitory concentration (IC50) in assay [1] is 1000 to 10000 nM; in assay [2], 100 to 1000 nM; in assay [3], over 10000 nM; in assay [4], over 10000 nM; in assay [5], 100 to 1000 nM; in [6], over 10000 nM. Further, the IC50 in [7] lay within 1000 to 10000 nM; in assay [8] it was 1000 to 10000 nM; in [9], 100 to 1000 nM.

Consider `O=C1NC(=O)C(c2sccc2Sc2ccc(OCc3ccccc3CO)cc2)N1` (stereo not drawn) [TC5], for which the IC50 in assay [1] is 1000 to 10000 nM; in [2], over 10000 nM; in assay [3], over 10000 nM; in [4], over 10000 nM; in assay [5] it was 1000 to 10000 nM; in [6], over 10000 nM. The IC50 in assay [7], in assay [8] and in [9] was 1000 to 10000 nM each time.

As to `CCC1(c2cnccc2Sc2ccc(OCc3cccc(C)c3)cc2)NC(=O)NC1=O` (stereo not drawn) [PC-22], the IC50 is 1000 to 10000 nM in assay [1]; 100 to 1000 nM in [2]; 1000 to 10000 nM in [3]; over 10000 nM in assay [4]; 1000 to 10000 nM in assay [5]; over 10000 nM in assay [6]. Further, the IC50 in [7] was 1000 to 10000 nM; in [8] it was 100 to 1000 nM; in assay [9], 1000 to 10000 nM.

For the compound `O=C1NC(=O)C(c2cnccc2Sc2ccc(OCc3cccc(CO)c3)cc2)N1` (stereo not drawn) [PC-8], the IC50 was over 10000 nM in [1]; 1000 to 10000 nM in assay [2]; over 10000 nM in assay [3]; over 10000 nM in assay [4]; 1000 to 10000 nM in [5]; over 10000 nM in assay [6]. Further, the IC50 in [7] was over 10000 nM; in assay [8], 1000 to 10000 nM; in assay [9] it was over 10000 nM.

As for `O=C1NC(=O)C(c2ccncc2Sc2ccc(OCc3ccccc3CO)cc2)N1` (stereo not drawn) [PC-12], the concentration for half-maximal inhibition (IC50) in [1] is 1000 to 10000 nM; in [2], over 10000 nM; in assay [3], over 10000 nM; in [4] it was over 10000 nM; in assay [5], 1000 to 10000 nM; in assay [6] it was over 10000 nM. The 50% inhibitory concentration (IC50) lay in the range of 1000 to 10000 nM in [7], 100 to 1000 nM in assay [8] and 1000 to 10000 nM in assay [9].

Regarding `Cc1cc(COc2ccc(Sc3ccncc3C3NC(=O)NC3=O)c(F)c2)ccn1` (stereo not drawn) [PC-50], the IC50 is 1000 to 10000 nM in assay [1]; 100 to 1000 nM in assay [2]; 1000 to 10000 nM in assay [3]; over 10000 nM in [4]; 100 to 1000 nM in assay [5]; over 10000 nM in assay [6]. In addition, the values for the IC50 in assay [7], in assay [8] and in assay [9] were 1000 to 10000 nM, 100 to 1000 nM and 100 to 1000 nM, respectively.

Consider `O=C1NC(=O)C(c2sccc2Sc2ccc(OCc3cccc(CO)c3)cc2)N1` (stereo not drawn) [TC4], for which the 50% inhibitory concentration (IC50) in [1] was 1000 to 10000 nM; in assay [2], 1000 to 10000 nM; in [3], 1000 to 10000 nM; in assay [4], over 10000 nM; in [5], 1000 to 10000 nM; in assay [6] it was over 10000 nM. The figures for the IC50 in [7], in [8] and in assay [9] were 1000 to 10000 nM, 100 to 1000 nM and 100 to 1000 nM, respectively.

Regarding `O=C1NC(=O)C(c2ccncc2Sc2ccc(OCc3cccc(CO)c3)cc2)N1` (stereo not drawn) [PC-13], the IC50 in [1] was 1000 to 10000 nM; in [2], 1000 to 10000 nM; in assay [3] it was over 10000 nM; in assay [4], over 10000 nM; in assay [5] it was 1000 to 10000 nM; in [6], over 10000 nM. For the same compound, the IC50 was 1000 to 10000 nM in assay [7], 100 to 1000 nM in assay [8] and 1000 to 10000 nM in [9].

Turning to `Cc1cc(COc2ccc(Sc3ccncc3C3NC(=O)NC3=O)cc2C)ccn1` (stereo not drawn) [PC-48], the IC50 in [1] is 1000 to 10000 nM; in assay [2], 100 to 1000 nM; in [3] it was over 10000 nM; in assay [4], over 10000 nM; in [5], 1000 to 10000 nM; in assay [6], over 10000 nM. In addition, the half-maximal inhibitory concentration (IC50) in assay [7], in [8] and in assay [9] was 1000 to 10000 nM each time.

For `Cc1cc(COc2ccc(Sc3ncn(C)c3C3NC(=O)NC3=O)cc2)ccn1` (stereo not drawn) [OC-13], the IC50 in assay [1] was 1000 to 10000 nM; in [2], 100 to 1000 nM; in assay [3], 100 to 1000 nM; in [4], over 10000 nM; in [5], 100 to 1000 nM; in [6], over 10000 nM. The half-maximal inhibitory concentration (IC50) was in the range of 1000 to 10000 nM in assay [7], 1000 to 10000 nM in [8] and 100 to 1000 nM in assay [9].

As to `Cc1cc(COc2ccc(Sc3cnn(C)c3C3NC(=O)NC3=O)cc2)ccn1` (stereo not drawn) [OC-12], the half-inhibitory concentration (IC50) was 1000 to 10000 nM in assay [1]; 100 to 1000 nM in assay [2]; 1000 to 10000 nM in assay [3]; over 10000 nM in assay [4]; 100 to 1000 nM in [5]; over 10000 nM in assay [6]. Also, the IC50 was in the range of 1000 to 10000 nM in assay [7], 1000 to 10000 nM in assay [8] and 100 to 1000 nM in assay [9].

Take `O=C1NC(=O)C(c2cnccc2Sc2ccc(OCc3cccc(O)c3)cc2)N1` (stereo not drawn) [PC-10]: the concentration for half-maximal inhibition (IC50) in assay [1] is over 10000 nM; in assay [2], 1000 to 10000 nM; in assay [3], over 10000 nM; in [4], over 10000 nM; in [5], 1000 to 10000 nM; in [6] it was over 10000 nM. The IC50 in assay [7], in assay [8] and in [9] was 1000 to 10000 nM each time.

As to `NC(=O)c1cccc(COc2ccc(Sc3ccncc3C3NC(=O)NC3=O)cc2)c1` (stereo not drawn) [PC-28], the concentration for half-maximal inhibition (IC50) in assay [1] was 1000 to 10000 nM; in assay [2], 100 to 1000 nM; in assay [3] it was 1000 to 10000 nM; in assay [4] it was over 10000 nM; in [5], 1000 to 10000 nM; in assay [6], over 10000 nM. For the same compound, the IC50 in assay [7] was in the range of 1000 to 10000 nM; in assay [8], 1000 to 10000 nM; in assay [9], 100 to 1000 nM.
